Test results as given in US4588720A, “Imidazo[1,2-a]pyrimidines” (Roussel Uclaf, priority 1982, dated 1986).

Tests used:
[1] = Anxiolytic activity, Geller conflict method (Geller and Seifter); type: in vivo; conditions: po; modified Geller and Seifter conflict method; read-out: Geller Conflict (MED mg/kg po), minimum effective dose at which there was an observed increase in shocks above control
Procedure: Screening for anxiolytic activity was carried out by modifications of the conflict method of Geller and Seifter (Psychopharmacologia, (1960), Volume I, p. 482). The values given in Table VI are the minimum effective doses at which there was an observed increase in shocks above control (MED me/kg po).

[2] = target: benzodiazepine receptors; assay: Affinity for benzodiazepine receptors ([3H] flunitrazepam radioreceptor binding); conditions: inhibition of specific binding of 0.6 nM [^3 H] flunitrazepam, rat forebrain membrane preparations; read-out: Receptor Binding (IC50 nM)
Procedure: A. Affinity for benzodiazepine receptors
The affinity of the compounds for benzodiazepine receptors was assessed using the radioligand [^3 H] flunitrazepam and modifications of the original radioreceptor binding method of Squares and Braestrup (Nature, Vol. 266 (1977) p. 732). The values given in Table VI are nanomolar concentrations of test compound which inhibited the specific binding of 0.6 nM[^3 H] flunitrazepam to rat forebrain membrain preparations by 50% (IC50 nM).

| Compound | minimal effective dose [1] | IC50 [2] |
| --- | --- | --- |
| C=CCc1c(OC)nc2nc(C(=O)c3ccccc3)cn2c1CCC [Example 37, [6-Allyl-7-methoxy-5-n-propylimidazo[1,2-a]pyrimidin-2-yl]phenylmethanone] | 50 mg/kg | 135 nM |
| CCc1cn2cc(C(=O)c3ccccc3)nc2nc1OC [Example 38, [6-Ethyl-7-methoxyimidazo[1,2-a]pyrimidin-2-yl]phenylmethanone] | 5 mg/kg | 1500 nM |
| CCCCc1c(C)c(OC)nc2nc(C(=O)c3ccccc3)cn12 [Example 39, [5-n-Butyl-7-methoxy-6-methylimidazo[1,2-a]pyrimidin-2-yl]phenylmethanone] | 50 mg/kg | 400 nM |
| CCCc1cn2cc(C(=O)c3ccccc3)nc2nc1OC [Example 40, [7-Methoxy-6-n-propylimidazo[1,2-a]pyrimidin-2-yl]phenylmethanone] | 50 mg/kg | 1900 nM |
| CCCCc1cn2cc(C(=O)c3ccccc3)nc2nc1OC [Example 41, [6-n-Butyl-7-methoxyimidazo[1,2-a]pyrimidin-2-yl]phenylmethanone] | 50 mg/kg | 300 nM |
| COc1nc2nc(C(=O)c3ccccc3)cn2cc1C [Example 42, [7-Methoxy-6-methylimidazo[1,2-a]pyrimidin-2-yl]phenylmethanone] | 50 mg/kg | 5900 nM |
| CCCCc1cc(OC)nc2nc(C(=O)c3ccccc3)cn12 [Example 43, [5-n-Butyl-7-methoxyimidazo[1,2-a]pyrimidin-2-yl]phenylmethanone] | 10 mg/kg | 340 nM |
| C=CCc1c(OC)nc2nc(C(=O)c3ccccc3)cn2c1CC [Example 44, [6-Allyl-5-ethyl-7-methoxyimidazo[1,2-a]pyrimidin-2-yl]phenylmethanone] | 10 mg/kg | 42 nM |
| CCCCc1c(CC)c(OC)nc2nc(C(=O)c3ccccc3)cn12 [Example 45, [5-n-Butyl-6-ethyl-7-methoxyimidazo[1,2-a]pyrimidin-2-yl]phenylmethanone] | 50 mg/kg | 500 nM |
| CCCCc1c(CCC)c(OC)nc2nc(C(=O)c3ccccc3)cn12 [Example 46, [5-n-Butyl-7-methoxy-6-n-propylimidazo[1,2-a]pyrimidin-2-yl]phenylmethanone] | 20 mg/kg | 1200 nM |
| CCCCCc1c(OC)nc2nc(C(=O)c3ccccc3)cn2c1C [Example 47, [7-Methoxy-5-methyl-6-n-pentylimidazo[1,2-a]pyrimidin-2-yl]phenylmethanone] | 20 mg/kg | 107 nM |
| COc1nc2nc(C(=O)c3ccccc3)cn2c(C)c1CC(C)C [Example 48, [6-iso-Butyl-7-methoxy-5-methylimidazo[1,2-a]pyrimidin-2-yl]phenylmethanone] | 20 mg/kg | 400 nM |
| CCc1c(SC)nc2nc(C(=O)c3ccccc3)cn2c1C [Example 49, [6-ethyl-5-methyl-7-(methylthio)imidazo[1,2-a]pyrimidin-2-yl]phenylmethanone] | 2 mg/kg | 12 nM |
| CCc1c(OC)nc2nc(C(=O)c3ccc(OC)cc3)cn2c1C [Example 54, (6-Ethyl-7-methoxy-5-methylimidazo[1,2-a]pyrimidin-2-yl)(4-methoxyphenyl)methanone] | 10 mg/kg | 59 nM |
| CCc1c(OC)nc2nc(C(=O)c3ccc(Cl)cc3)cn2c1C [Example 55, (6-ethyl 7-methoxy 5-methylimidazo/1,2-a/pyrimidin-2-yl)(4-chlorophenyl)methanone] | 50 mg/kg | 85 nM |
| CCc1c(OC)nc2nc(C(=O)c3ccc(C)cc3)cn2c1C [Example 56, (6-ethyl 7-methoxy 5-methylimidazo/1,2-a/pyrimidin-2-yl)(4-methylphenyl)methanone] | 50 mg/kg | 68 nM |
| CCc1c(OC)nc2nc(C(=O)c3ccccc3Cl)cn2c1C [Example 57, (6-ethyl 7-methoxy 5-methylimidazo/1,2-a/pyrimidin-2-yl)(2-chlorophenyl)methanone] | 50 mg/kg | 100 nM |
| CCc1c(OC)nc2nc(C(=O)c3cccc(OC)c3)cn2c1C [Example 58, (6-ethyl 7-methoxy 5-methylimidazo/1,2-a/pyrimidin-2-yl)(3-methoxyphenyl)methanone] | 50 mg/kg | 500 nM |
| CCc1c(OC)nc2nc(C(=O)c3ccc(SC)cc3)cn2c1C [Example 59, (6-ethyl 7-methoxy 5-methylimidazo/1,2-a/pyrimidin-2-yl)(4-methylthiophenyl)methanone] | 50 mg/kg | 300 nM |
